# Article PMC5910287 (ACS chemical biology, 2018)
# Test system: L. lactis HP
# Experiment: Minimal inhibitory concentrations determined in liquid media
# Type: cell-based, Lactococcus lactis
# Conditions: serial two-fold dilution, Fig. S12
substance,measurement,value
lacticin 481 [wt-lacticin 481],Minimal inhibitory concentration,0.39 µM
